{"source": "the supplement of paper PMC10307832", "test_in_all_cases": "relative viability (nuclei count vs DMSO), 5 days (fraction); higher = more cells survive", "key": {"LXF-289": {"system": "LXF-289", "procedure,_shortened": "(§1)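 One day after seeding in 1536-well plates, lung cancer cell lines were dosed by pin tool. Dosing was either single-drug or a fixed anchor-drug dose plus five library-drug doses (not always all listed) in √10 steps. After 5 days, nuclei were stained in one fix-and-stain step and counted on 4× images, and relative viability is the nuclei count of treated wells over that of vehicle wells, given as the median of duplicate plates.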"}, "NCI-H1395": {"system": "NCI-H1395", "procedure,_shortened": "as §1"}, "NCI-H1563": {"system": "NCI-H1563", "procedure,_shortened": "as §1"}, "NCI-H1993": {"system": "NCI-H1993", "procedure,_shortened": "as §1"}, "NCI-H2087": {"system": "NCI-H2087", "procedure,_shortened": "as §1"}, "NCI-H2126": {"system": "NCI-H2126", "procedure,_shortened": "as §1"}, "NCI-H2170": {"system": "NCI-H2170", "procedure,_shortened": "as §1"}, "NCI-H650": {"system": "NCI-H650", "procedure,_shortened": "as §1"}, "RERF-LC-KJ": {"system": "RERF-LC-KJ", "procedure,_shortened": "as §1"}, "SK-MES-1": {"system": "SK-MES-1", "procedure,_shortened": "as §1"}, "UMC-11": {"system": "UMC-11", "procedure,_shortened": "as §1"}}}
{"smiles": "CCNC(=O)c1noc(-c2cc(C(C)C)c(O)cc2O)c1-c1ccc(CN2CCOCC2)cc1", "note": "[Luminespib] + Cc1nc(NC(=O)N2CCC[C@H]2C(N)=O)sc1-c1ccnc(C(C)(C)C(F)(F)F)c1 [Alpelisib] (partner 2 µM)", "values": [{"measurement": "relative viability", "setting": "LXF-289; first compound 0.006325 µM", "value": 0.97}, {"measurement": "relative viability", "setting": "LXF-289; first compound 0.02 µM", "value": 1.09}, {"measurement": "relative viability", "setting": "LXF-289; first compound 0.06325 µM", "value": 0.52}, {"measurement": "relative viability", "setting": "LXF-289; first compound 0.2 µM", "value": 0.161}, {"measurement": "relative viability", "setting": "NCI-H1395; first compound 0.002 µM", "value": 1.37}, {"measurement": "relative viability", "setting": "NCI-H1395; first compound 0.006325 µM", "value": 1.03}, {"measurement": "relative viability", "setting": "NCI-H1395; first compound 0.02 µM", "value": 1.17}, {"measurement": "relative viability", "setting": "NCI-H1395; first compound 0.06325 µM", "value": 0.469}, {"measurement": "relative viability", "setting": "NCI-H1395; first compound 0.2 µM", "value": 0.349}, {"measurement": "relative viability", "setting": "NCI-H1563; first compound 0.002 µM", "value": 0.877}, {"measurement": "relative viability", "setting": "NCI-H1563; first compound 0.006325 µM", "value": 0.942}, {"measurement": "relative viability", "setting": "NCI-H1563; first compound 0.02 µM", "value": 0.95}, {"measurement": "relative viability", "setting": "NCI-H1563; first compound 0.06325 µM", "value": 0.495}, {"measurement": "relative viability", "setting": "NCI-H1563; first compound 0.2 µM", "value": 0.537}, {"measurement": "relative viability", "setting": "NCI-H1993; first compound 0.002 µM", "value": 0.676}, {"measurement": "relative viability", "setting": "NCI-H1993; first compound 0.006325 µM", "value": 0.74}, {"measurement": "relative viability", "setting": "NCI-H1993; first compound 0.02 µM", "value": 0.588}, {"measurement": "relative viability", "setting": "NCI-H1993; first compound 0.06325 µM", "value": 0.606}, {"measurement": "relative viability", "setting": "NCI-H1993; first compound 0.2 µM", "value": 0.548}, {"measurement": "relative viability", "setting": "NCI-H2087; first compound 0.002 µM", "value": 1.2}, {"measurement": "relative viability", "setting": "NCI-H2087; first compound 0.006325 µM", "value": 0.907}, {"measurement": "relative viability", "setting": "NCI-H2087; first compound 0.02 µM", "value": 1.3}, {"measurement": "relative viability", "setting": "NCI-H2087; first compound 0.06325 µM", "value": 0.193}, {"measurement": "relative viability", "setting": "NCI-H2087; first compound 0.2 µM", "value": 0.184}, {"measurement": "relative viability", "setting": "NCI-H2126; first compound 0.002 µM", "value": 0.739}, {"measurement": "relative viability", "setting": "NCI-H2126; first compound 0.006325 µM", "value": 0.727}, {"measurement": "relative viability", "setting": "NCI-H2126; first compound 0.02 µM", "value": 0.538}, {"measurement": "relative viability", "setting": "NCI-H2126; first compound 0.06325 µM", "value": 0.748}, {"measurement": "relative viability", "setting": "NCI-H2126; first compound 0.2 µM", "value": 0.838}, {"measurement": "relative viability", "setting": "NCI-H2170; first compound 0.002 µM", "value": 0.763}, {"measurement": "relative viability", "setting": "NCI-H2170; first compound 0.006325 µM", "value": 0.79}, {"measurement": "relative viability", "setting": "NCI-H2170; first compound 0.02 µM", "value": 0.526}, {"measurement": "relative viability", "setting": "NCI-H2170; first compound 0.06325 µM", "value": 0.504}, {"measurement": "relative viability", "setting": "NCI-H2170; first compound 0.2 µM", "value": 0.172}, {"measurement": "relative viability", "setting": "NCI-H650; first compound 0.002 µM", "value": 1.24}, {"measurement": "relative viability", "setting": "NCI-H650; first compound 0.006325 µM", "value": 1.04}, {"measurement": "relative viability", "setting": "NCI-H650; first compound 0.02 µM", "value": 0.994}, {"measurement": "relative viability", "setting": "NCI-H650; first compound 0.06325 µM", "value": 0.193}, {"measurement": "relative viability", "setting": "NCI-H650; first compound 0.2 µM", "value": 0.145}, {"measurement": "relative viability", "setting": "RERF-LC-KJ; first compound 0.002 µM", "value": 0.813}, {"measurement": "relative viability", "setting": "RERF-LC-KJ; first compound 0.006325 µM", "value": 0.894}, {"measurement": "relative viability", "setting": "RERF-LC-KJ; first compound 0.02 µM", "value": 0.51}, {"measurement": "relative viability", "setting": "RERF-LC-KJ; first compound 0.06325 µM", "value": 0.541}, {"measurement": "relative viability", "setting": "RERF-LC-KJ; first compound 0.2 µM", "value": 0.242}, {"measurement": "relative viability", "setting": "SK-MES-1; first compound 0.002 µM", "value": 0.82}, {"measurement": "relative viability", "setting": "SK-MES-1; first compound 0.006325 µM", "value": 0.858}, {"measurement": "relative viability", "setting": "SK-MES-1; first compound 0.02 µM", "value": 0.593}, {"measurement": "relative viability", "setting": "SK-MES-1; first compound 0.06325 µM", "value": 0.306}, {"measurement": "relative viability", "setting": "SK-MES-1; first compound 0.2 µM", "value": 0.133}, {"measurement": "relative viability", "setting": "UMC-11; first compound 0.002 µM", "value": 0.943}, {"measurement": "relative viability", "setting": "UMC-11; first compound 0.006325 µM", "value": 0.907}, {"measurement": "relative viability", "setting": "UMC-11; first compound 0.02 µM", "value": 0.653}, {"measurement": "relative viability", "setting": "UMC-11; first compound 0.06325 µM", "value": 0.342}, {"measurement": "relative viability", "setting": "UMC-11; first compound 0.2 µM", "value": 0.129}]}
